The results in this text go back to patent US20200239530A1, “COMPOUNDS AND METHODS OF MODULATING PROTEIN DEGRADATION” (Vividion Therapeutics, Inc., priority 2017, published 2020).

The target in test [1] is T1, ACAA2 3-ketoacyl-CoA thiolase, mitochondrial (Homo sapiens, UniProt P42765).
T1 construct: Cells were resuspended in cold PBS on ice and sonicated with a probe sonicator to achieve lysis; endogenous in cells
T1 sequence (P42765 1-397): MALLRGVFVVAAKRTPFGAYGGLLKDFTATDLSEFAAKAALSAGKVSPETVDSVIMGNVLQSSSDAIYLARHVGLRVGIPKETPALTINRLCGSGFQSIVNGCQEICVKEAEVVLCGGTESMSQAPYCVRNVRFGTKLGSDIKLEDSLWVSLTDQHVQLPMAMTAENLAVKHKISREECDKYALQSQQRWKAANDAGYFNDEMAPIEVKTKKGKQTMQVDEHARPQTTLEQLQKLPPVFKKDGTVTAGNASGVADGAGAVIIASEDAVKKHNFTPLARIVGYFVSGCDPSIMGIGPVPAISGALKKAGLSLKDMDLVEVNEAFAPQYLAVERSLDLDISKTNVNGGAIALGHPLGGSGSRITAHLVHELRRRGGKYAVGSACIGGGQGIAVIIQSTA
The test can be described thus: Cysteine liganding, probe competition. It is filed as binding. The procedure, abridged:
(§1)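 Steps: sonicate cells in cold PBS; treat 5 mg/ml lysate with compound (25° C, 1 hr); add desthiobiotin iodoacetamide probe from a 10 mM stock (25° C, 1 hr); precipitate, reduce, alkylate, digest with trypsin; capture labelled peptides on streptavidin for analysis.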

The target in test [2] is T2, DDX50 ATP-dependent RNA helicase DDX50 (Homo sapiens, UniProt Q9BQ39).
T2 construct: 200 μL of lysate containing 5 mg/ml proteome was treated with 2 μL of 100× compound stock; endogenous in cells
T2 sequence (Q9BQ39 1-737): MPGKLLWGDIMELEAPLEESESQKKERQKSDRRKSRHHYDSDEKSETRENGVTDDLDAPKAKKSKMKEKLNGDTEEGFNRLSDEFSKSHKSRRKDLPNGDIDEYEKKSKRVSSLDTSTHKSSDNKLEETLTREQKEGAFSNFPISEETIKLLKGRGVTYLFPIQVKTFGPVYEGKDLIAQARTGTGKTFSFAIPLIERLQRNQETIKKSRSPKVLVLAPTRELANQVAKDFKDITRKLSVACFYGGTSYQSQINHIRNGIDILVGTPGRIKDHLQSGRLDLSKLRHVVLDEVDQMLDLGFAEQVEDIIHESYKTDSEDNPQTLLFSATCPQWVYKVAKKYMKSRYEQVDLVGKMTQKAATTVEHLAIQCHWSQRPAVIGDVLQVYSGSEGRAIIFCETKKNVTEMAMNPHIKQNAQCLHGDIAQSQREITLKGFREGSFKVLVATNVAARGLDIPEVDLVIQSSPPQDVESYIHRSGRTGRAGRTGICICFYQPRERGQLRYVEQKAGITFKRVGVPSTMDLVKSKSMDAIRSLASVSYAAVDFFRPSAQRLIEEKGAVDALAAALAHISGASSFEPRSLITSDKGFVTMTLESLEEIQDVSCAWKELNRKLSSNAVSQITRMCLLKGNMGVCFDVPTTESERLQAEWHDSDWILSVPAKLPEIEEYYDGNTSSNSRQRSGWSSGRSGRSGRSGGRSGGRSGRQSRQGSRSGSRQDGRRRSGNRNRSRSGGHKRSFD
The test can be described thus: Cysteine liganding, probe competition. The test is classed as binding. In a few lines: as §1

Turning to `COc1ccc2c(c1)CCCN2C(=O)CCl` [KB02], the Liganded entry is reported as “YES” in test [1] (ACAA2 Res# 382, uniprot P42765) and “YES” in test [2] (DDX50 Res# 603, uniprot Q9BQ39).
With `O=C(CCl)Nc1cc(C(F)(F)F)cc(C(F)(F)F)c1` [KBO3], in test [1] (uniprot P42765), the “100 Max” value is reported as 3.45, the 100 ave is 3.45, the “500 Max” value is −0.69 and the 500 ave was −0.69. In addition, in test [2] (uniprot Q9BQ39), the “100 Max” value is reported as −9.62, the 100 ave is given as −13.925, the “500 Max” value is reported as 28.63 and the 500 ave was 22.82.
